Experimental data from US20070123537A1, “Quinazoline derivatives for the treatment of herpesviral infections” (GPC Biotech AG, priority 2003, published 2007).
Entries after “also recorded” stand apart in the source; their conditions may differ. Where two headings read alike, the source gives them in different places.

Experiments:
[1] = test system: clinical HCMV strain R2; assay: Plaque reduction assay, clinical isolate R2; assay type: cell-based, Human Cytomegalovirus (HCMV); conditions: Human betaherpesvirus 5; GCV- and CDV-resistant strain; read-out: IC 50, clinical strain R2
Method: (§1) HCMV reference strain AD 169 was used at an MOI (multiplicity of infection) of 0.004 for the infection of HFFs in 12 well plates as described in FIG. 2. After virus adsorption, the infected cell layers were overlayed with fresh medium containing the compound concentration as indicated in FIG. 2 and 0.3% agarose. After eight days postinfection, a staining of virus plaques was performed by the use of 1% crystal violet. Quantification was achieved by microscopic counting in quadruplicate (infection in duplicate, counting in duplicate).
(§2) Furthermore, clinical isolates of HCMV like R5, R3 and R2 were used for the infection of HFFs in a plaque reduction assay under the conditions described above. Parallel experiments on phenotype characterization , gene sequencing and UL 97-in-cell-activity assay (GCV phosphorylation) with cloned UL 97 were performed (Marschall, M., et al., J. Gen Virol. 2001, 82, 1439-1450).
(§3) Three clinical HCMV strains were investigated on replication in the presence of the selected quinazoline derivatives 3,4-Dichloro-phenyl)-quinazolin-4-yl-amine (compound 37), (3,4-Dichloro-phenyl)-(6-methyl-quinazolin-4-yl)-amine (compound 49) and (4-Bromo-phenyl)-quinazolin-4-yl-amine (compound 98).

[2] = test system: clinical HCMV isolate R3; assay: Plaque reduction assay, clinical isolate R3; assay type: cell-based, Human Cytomegalovirus (HCMV); conditions: partially GCV resistant, CDV sensitive isolate; read-out: IC 50, clinical isolate R3
Method: as §1, §2, §3

[3] = test system: clinical HCMV isolate R5; assay: Plaque reduction assay, clinical isolate R5; assay type: cell-based, Human Cytomegalovirus (HCMV); conditions: GCV sensitive and CDV sensitive isolate; read-out: IC 50, clinical isolate R5
Method: as §1, §2, §3

[4] = test system: HCMV mutant AD169deIUL97; assay: Plaque reduction assay with UL97-deleted HCMV mutant; assay type: cell-based, Human Cytomegalovirus (HCMV); conditions: 50 nM NGIC-I, 10 μM compound 37 or 2 μM CDV
Method: FIG. 3: Replication of UL97-deleted HCMV in the presence of pUL97 inhibitors. Plaque assays were performed with HCMV mutant AD169deIUL97, carrying a deletion in the UL97 gene, in the presence of 0.1% DMSO (no inhib.), 50 nM NGIC-I, 10 μM compound 37 or 2 μM CDV as indicated.
To confirm the conclusion that pUL97 is the target for the antiviral activity of quinazolines, we performed an experiment with an UL97-deleted mutant of HCMV (AD169deIUL97) (Prichard, M. N., Gao, N., Jairath, S., Mulamba, G., Krosky, P., Coen, D. M., Parker, B. O., and Pari, G. S., J. Virol. […], 73, 5663).

[5] = target: T1, viral kinase UL-97 (Human cytomegalovirus, UniProt P16788); assay: UL97 Kinase-Assay on Immobilon Plate; assay type: biochemical
T1 construct: The UL-97 gene was cloned into a baculovirus vector in order to produce GST (glutathione S-transferase) fusion protein; GST; made in house; host or cells: Sf9 insect cells (baculovirus)
Method: UL97 Kinase-Assay on Immobilon Plate
The effect of quinazoline derivatives on the activity of the viral kinase UL-97 was tested. This kinase is derived from human cytomegalovirus (HCMV) (Marschall, M., et al., J. Gen Virol. 2001, 82,1439-1450.). The UL-97 gene was cloned into a baculovirus vector in order to produce GST (glutathione S-transferase) fusion protein. Insect cells (Sf9) were infected and GST-UL-97 purified via glutathione affinity columns according to standard procedures.
The UL-97 kinase reaction was performed as described (Marschall M. et aL, J. Gen. Virol. 2001, 82, 1439-1450). Briefly, 10 μl Assay buffer (3 μM ATP, 60 μg/ml myelin basic protein (MBP) as substrate), 1,0 μCi gamma[^33P]ATP and 10 μp, Basic buffer (20mM Tris-HCl 7.5, 500 μM MnCl2, 1 mM DTT (dithiothreitol)) were given to the test tube before adding various concentrations of the quinazoline derivatives. The reaction was started by adding 0.2 μl UL97 kinase, purified from infected Sf9-insect cells as described above. The total volume was adjusted with Basic buffer to a final volume of 30 μl. The reaction mix was incubated for 1 hr at 30° C. For negative control, 10 μl 0.1 M EDTA (ethylene diamine tetraacetate) was added to reaction mix before addition of UL-97 protein kinase. The reaction was stopped by addition of 10 μl 0.1 M EDTA.
Measuring Incorporation of Radioactivity
An Immobilon plate (Millipore) was rinsed with 50 μl methanol/well. Following addition of 100 μl 0.1 M EDTA, 20 μl of each kinase reaction mix was added to one well of the Immobilon plate. Each well was washed 4× with 250 μl 0.75% phosphoric acid and 1× with 50 μl methanol. After addition of 50 μl scintillation cocktail (Roth, Germany) per well incorporation of radioactivity was measured using a Betareader (Wallac) and enzymatic activity calculated.

[6] = test system: HCMV AD-169; assay: HCMV infection of HFFs, reporter gene based antiviral assay; assay type: cell-based, Human Cytomegalovirus (HCMV); conditions: for HCMV AD 169 Replication [%] of control at 3 μM: 3 μM compound, HFFs, reporter gene activity after seven days; for IC50: replication of HCMV strain AD 169 in HFF cells, read-out: HCMV AD 169 IC 50
Method: To examine the effect of the quinazoline derivatives on HCMV replication, HCMV infections were performed in a cellular system.
Human foreskin fibroblasts (HFFs) were grown to subconfluency in 12 well plates and infected with 0.25 tissue culture infectious doses of HCMV AD-169 carrying a reporter gene (HCMV based antiviral assay). Quinazoline derivatives (stocks in DMSO (Dimethylsulfoxide)) were diluted in culture medium to the concentrations indicated and added to the cells immediately after virus adsorption. The success of infection (reporter gene expressing cells) and the lack of cytotoxicity of the compound (confluent cell layer) was monitored by microscopy. After seven days, cell layers were harvested, lysed and subjected to the automated fluorometry measurement of reporter gene activity. Each panel refers to a determination in quadruplicate (infection in duplicate, lysate preparation and measurement in duplicate).

[7] = target: T2, UL 97 (Human cytomegalovirus, UniProt P16788); assay: UL 97 in-cell activity: protection of HEK 293 cells ectopically expressing UL 97 against toxic GCV; assay type: cell-based, human cytomegalovirus (HCMV); conditions: HEK 293 cells expressing UL 97
T2 construct: expressed in transfected cells; host or cells: HEK 293
Method: as §2
Furthermore, (IC50)-values of HCMV replication was measured for some compounds in a cellular system. Some quinazoline derivatives protect HEK 293 cells ectopially expressing UL 97 against toxic concentrations of GCV (10 and 20 μM respectively).

[8] = test system: HEK 293 cells; assay: Toxicity assay in HEK 293 cells; assay type: cell-based
Method: Toxicity Assay: Toxicity of the quinazoline derivatives was measured by incubating HEK 293 cells with 10 μM of each derivative. The corresponding amount of DMSO served as control.

[9] = test system: HCMV reference strain AD 169; assay: Plaque reduction assay, HCMV AD 169 in HFFs; assay type: cell-based, Human Cytomegalovirus (HCMV); conditions: Human betaherpesvirus 5, 192 h, read-out: IC50 in the plaque reduction assay
Method: as §1

[10] = 3 μM ATP, MBP substrate, read-out: UL 97 IC 50
[11] = Human betaherpesvirus 5, AD169, HFF
[12] = HCMV AD 169, HFFs, eight days postinfection

T2 sequence (P16788 whole entry): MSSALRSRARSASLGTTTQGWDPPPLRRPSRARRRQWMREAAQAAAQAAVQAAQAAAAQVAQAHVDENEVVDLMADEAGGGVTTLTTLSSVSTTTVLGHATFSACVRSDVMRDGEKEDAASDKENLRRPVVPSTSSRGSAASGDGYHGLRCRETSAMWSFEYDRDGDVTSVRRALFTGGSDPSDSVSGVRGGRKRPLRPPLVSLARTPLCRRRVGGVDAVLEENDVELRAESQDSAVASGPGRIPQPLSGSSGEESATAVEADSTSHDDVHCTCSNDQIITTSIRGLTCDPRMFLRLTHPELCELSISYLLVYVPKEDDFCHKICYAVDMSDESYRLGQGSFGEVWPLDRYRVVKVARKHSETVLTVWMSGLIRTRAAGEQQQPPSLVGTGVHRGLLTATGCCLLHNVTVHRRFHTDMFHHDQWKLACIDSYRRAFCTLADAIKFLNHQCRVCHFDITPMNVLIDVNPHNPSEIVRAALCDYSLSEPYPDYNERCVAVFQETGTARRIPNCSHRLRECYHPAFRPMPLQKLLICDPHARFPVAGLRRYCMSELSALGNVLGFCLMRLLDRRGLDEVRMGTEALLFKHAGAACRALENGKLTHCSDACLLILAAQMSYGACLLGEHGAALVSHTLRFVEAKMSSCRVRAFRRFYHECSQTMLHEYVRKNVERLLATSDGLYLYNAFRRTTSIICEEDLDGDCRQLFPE
T1 sequence (P16788 whole entry, the tested form may be a part): as the sequence (P16788 whole entry) above

Nc1ccn(C[C@@H](CO)OCP(=O)(O)O)c(=O)n1 [CDV, Cidofovir]
IC50 [1]: 4200 nM
IC50 [2]: 350 nM
IC50 [3]: 700 nM
effect on replication of AD169deIUL97 (plaque assay) [4]: complete inhibition; also recorded: efficiently blocked

COc1cc2ncnc(Nc3ccc(Br)cc3)c2cc1OC [Compound 31, (4-Bromo-phenyl)-(6,7-dimethoxy-quinazolin-4-yl)-amine]
inhibition of UL 97-kinase activity (in words) [5]: potent inhibitors
IC50 [5, 10]: 1200 nM
HCMV AD 169 Replication [%] of control at 3 μM [6]: 60%

Clc1ccc(Nc2ncnc3ccccc23)cc1Cl [Compound 37, (3,4-Dichloro-phenyl)-quinazolin-4-yl-amine]
inhibition of UL 97-kinase activity (in words) [5]: potent inhibitors
IC50 [5, 10]: 40 nM
HCMV AD 169 Replication [%] of control at 3 μM [6]: 45%
IC50 [6, 11]: 2000 to 3000 nM
IC50 [6]: 3000 nM
UL 97 GCV [%] growth at conc. [μM] ([7]; at 10 μM): 80%
UL 97 GCV [%] growth at conc. [μM] ([7]; at 20 μM): 50%
Viability [%] at 10 μM [8]: 77%
IC50 [9, 12]: 2500 to 5000 nM
effect on replication of AD169deIUL97 (plaque assay) [4]: only little or no effect
effect on replication of AD169deIUL97 (plaque assay) ([4]; listed as compound 37): not

Cc1ccc2ncnc(Nc3ccc(Br)cc3)c2c1 [Compound 43, (4-Bromo-phenyl)-(6-methyl-quinazolin-4-yl)-amine]
inhibition of UL 97-kinase activity (in words) [5]: potent inhibitors
IC50 [5, 10]: > 100 nM
HCMV AD 169 Replication [%] of control at 3 μM [6]: 20%

Cc1ccc2ncnc(Nc3ccc(Cl)c(Cl)c3)c2c1 [Compound 49, (3,4-Dichloro-phenyl)-(6-methyl-quinazolin-4-yl)-amine]
inhibition of UL 97-kinase activity (in words) [5]: potent inhibitors
IC50 [5, 10]: 20 nM
HCMV AD 169 Replication [%] of control at 3 μM [6]: 20%
IC50 [6, 11]: 2000 to 3000 nM
IC50 [6]: 2500 nM
UL 97 GCV [%] growth at conc. [μM] ([7]; at 10 μM): 80% at 10 μM
Viability [%] at 10 μM [8]: 78%
IC50 [9]: 2500 to 5000 nM

Fc1ccc2c(Nc3cccc(Cl)c3)ncnc2c1 [Compound 70, (3-Chloro-phenyl)-(7-fluoro-quinazolin-4-yl)-amine]
inhibition of UL 97-kinase activity (in words) [5]: potent inhibitors

Ic1ccc(Nc2ncnc3ccccc23)cc1 [Compound 72, (4-lodo-phenyl)-quinazolin-4-yl-amine]
inhibition of UL 97-kinase activity (in words) [5]: potent inhibitors
IC50 [5, 10]: 200 nM

c1ccc(Nc2ncnc3ccccc23)cc1 [Compound 84, Phenyl-quinazolin-4-yl-amine]
IC50 [5]: 300 nM

Clc1cccc(Nc2ncnc3ccccc23)c1 [Compound 87, (3-Chloro-phenyl)-quinazolin-4-yl-amine]
inhibition of UL 97-kinase activity (in words) [5]: potent inhibitors
IC50 [5, 10]: 700 nM

Fc1ccc(Nc2ncnc3ccccc23)cc1 [Compound 88, (4-Fluoro-phenyl)-quinazolin-4-yl-amine]
inhibition of UL 97-kinase activity (in words) [5]: potent inhibitors
IC50 [5, 10]: 200 nM

CCc1cccc(Nc2ncnc3ccc(C)cc23)c1 [Compound 89, (3-Ethyl-phenyl)-(6-methyl-quinazolin-4-yl)-amine]
inhibition of UL 97-kinase activity (in words) [5]: potent inhibitors

Brc1ccc(Nc2ncnc3ccccc23)cc1 [Compound 98, (4-Bromo-phenyl)-quinazolin-4-yl-amine]
inhibition of UL 97-kinase activity (in words) [5]: potent inhibitors
IC50 [5, 10]: 170 nM
HCMV AD 169 Replication [%] of control at 3 μM [6]: 30%
IC50 [6, 11]: 2000 to 3000 nM
IC50 [6]: 2000 nM
UL 97 GCV [%] growth at conc. [μM] ([7]; at 10 μM): 80%
UL 97 GCV [%] growth at conc. [μM] ([7]; at 20 μM): 60%
Viability [%] at 10 μM [8]: 75%
IC50 [9, 12]: 2500 to 5000 nM

Nc1nc(O)c2ncn(COC(CO)CO)c2n1 [ganciclovir]
IC50 [6, 11]: 3000 to 4000 nM
IC50 [9, 12]: 4000 to 6000 nM
IC50 [1]: 34000 nM
IC50 [2]: 20000 nM
IC50 [3]: 4100 nM
